The record followed here is patent US5468756A, “Imidazonaphthyridine derivatives” (Kyowa Hakko Kogyo Co., Ltd., priority 1990, dated 1995).

Some results are limits rather than exact numbers.

The subject of series [1] is carrageenin-induced paw edema. Description: Effect on carrageenin-induced paw edema. It is filed as in vivo, male Wistar rats. Particulars: Rattus norvegicus, 3 hours after carrageenin, read-out: Suppression rate for paw swelling, carrageenin-induced edema; for inhibition in vivo at 100 mg/kg: p.o.; for inhibition in vivo at 50 mg/kg: po, 50 mg/kg P.O. The method, then: a) Effect on carrageenin-induced paw edema
(§1) Male Wistar rats weighing 150 to 160 g (n=3-5) were used in the experiment. After the right hind paw volume was measured with the plethysmograph (TK-101; Unicom Co., Ltd.), the test compound (25, 50 or 100 mg/kg) was orally administered. After one hour, 0.1 ml of 1% carrageenin (λ-carrageenin; PICNIN-A®, Zushi Kagaku Co., Ltd.) was subcutaneously injected into the right hind paw footpad. Three hours after the injection of carrageenin, the right hind paw volume was measured and the swelling rate was determined by the following equation 1. [formula] Vt: the right hind paw volume measured 3 hours after the injection of carrageenin
(§2) Vo: the right hind paw volume measured prior to the injection of carrageenin
(§3) The suppression rate was calculated by the following equation 2. [formula] Swt: the swelling rate of the group administered with the test compound Swc: the swelling rate of the control group administered with physiological saline solution
(Carrageenan injected into the paw causes an acute inflammation.)

For series [2], the system named is passive Schultz-Dale reaction. The series is described as follows: Effect on passive Schultz-Dale reaction (broncho-dilative activity), sensitized tracheal strips contracted by antigen. As to conditions: guinea pig tracheal zig-zag strips, 37° C., antigen egg white albumin 1 μg/ml; read-out: Passive Schultz-Dale reaction IC50 (concentration of 50% relaxation rate). Also noted: species or system male Hartley guinea pigs. How it is done:
d) Effect on passive Schultz-Dale reaction (broncho-dilative activity)
Male Hartley guinea pigs weighing 350 to 500 g were passively sensitized by intraperitoneal injection of rabbit anti-OA serum prepared in advance by the method of Koda et al. [Folia Pharmacol., Japon 66, 237, (1970)]. After 24 hours, the guinea pigs were stunned and exsanguinated, and then tracheae were removed. The zig-zag strips of the tracheae were prepared by the method of Emmerson and Mackay [J. Pharm. Pharmacol., 31, 798, (1979)]. The strips were suspended in Krebs-Henseleit solution at 37° C. under aeration of a mixed gas of 95% oxygen and 5% carbon dioxide, and equilibrated for one hour. Then, antigen (egg white albumin) was introduced in the solution (final concentration; 1 μg/ml), and the contraction was measured by isotonictransducer (TD-112s, made by Nihon Kohden K.K., Japan) and recorded on a recorder (Type 3066, made by Yokogawa-Hokushin Denki, K.K. Japan). After the contraction curves reached a plateau, the test compounds were successively added in order to get cumulative concentration-relaxation curves. The concentration of 50% relaxation rate (IC50) was calculated from the regression line, which was obtained from the cumulative concentration-relaxation curves.

Series [3] relates to platelet activating factor (PAF)-induced mortality. Description: Inhibition effect on platelet activating factor (PAF)-induced mortality. Particulars: Mus musculus, po, PAF 40 μg/kg i.v., 3 h, read-out: Survival rate of test compound-administered group; for responders at 100 mg/kg: n = 10, control group survival 0-20%. The class given is in vivo, male dd mice. The method, then:
e) Inhibition effect on platelet activating factor (PAF)-induced mortality
The experiment was carried out by a minor modification of a known method [Br. J. Pharmacol., 79, 595 (1983)]. Groups each consisting of 10 male dd mice (weighing 28 to 32 g) were used, and 50 or 100 mg/kg of the test compound or a saline (control) was orally administered. One hour after the administration of test compound, 40 μg/kg of PAF (manufactured by Avanti Polar Lipids Co., Ltd.) was intravenously administered. Three hours after PAF injection, the mortality of the animals was observed.

For the next series, the system named is ddY strain male mice. The series is described as follows: Acute toxicity (Minimum Lethal Dose). It is filed as in vivo. The method, then:
The test compound was orally and intraperitoneally administered to ddY strain male mice weighing 20 to 25 g. MLD (Minimum Lethal Dose) was determined by observing the mortality for […] after the administration.

Series [4] relates to zymosan-induced paw edema. The series is described as follows: Effect on zymosan-induced paw edema. The class given is in vivo, male Wistar rats. Particulars: Rattus norvegicus, po; 25 mg/kg P.O.; read-out: Suppression rate for paw swelling, zymosan-induced edema. The method, then: as §1, §2, §3
b) Effect on zymosan-induced paw edema
The experiment was carried out in the same manner as in the carrageenin-induced paw edema test except that 1% zymosan (Zymosan A®; Sigma Chemical Co.) was used in place of 1% carrageenin and the right hind paw volume was measured […] the injection of the edema-inducing substance instead of 3 hours. The swelling rate and the suppression rate were calculated by equation 1 and equation 2, respectively.

As for `CCn1cnc2c(=O)n(-c3ccccc3)c3ncccc3c21` [Compound 5, 1-Ethyl-5-phenyl-1H-imidazo[4,5-c][1,8]naphthyridin-4(5H)-one], in series [1], the inhibition in vivo at 100 mg/kg was 20.6%. For the same compound, the IC50 in series [2] was > 10 µM. In series [3], the responders at 100 mg/kg amounted to 80%.
On the same counts, the results for `CC(C)n1cnc2c(=O)n(-c3ccccc3)c3ncccc3c21` [Compound 6, 1-Isopropyl-5-phenyl-1H-imidazo[4,5-c][1,8]naphthyridin-4(5H)-one] are 22%, > 10 µM and 70%.
As to `CC(c1ccccc1)n1cnc2c3cccnc3n(-c3ccccc3)c(=O)c21` (stereo not drawn) [Compound 16, 3-(α-Methyl)benzyl-5-phenyl-3H-imidazo[4,5-c][1,8]naphthyridin-4(5H)-one], the inhibition in vivo at 100 mg/kg in series [1] is 3.5%. Moreover, the IC50 in series [2] was > 10 µM. Moreover, the responders at 100 mg/kg in series [3] was found to be 0%. In the series on ddY strain male mice, the “MLD (Minimum Lethal Dose) i.p.” value is listed as > 100 mg/kg and the “MLD (Minimum Lethal Dose) p.o.” value is on record as > 300 mg/kg.
As for `O=C(O)Cn1cnc2c3cccnc3n(-c3ccccc3)c(=O)c21` [Compound 17, 3-Carboxymethyl-5-phenyl-3H-imidazo[4,5-c][1,8]naphthyridin-4(5H)-one], the inhibition in vivo at 100 mg/kg in series [1] came out at 10.8%. Further, in series [2], the IC50 is > 10 µM. Moreover, the responders at 100 mg/kg in series [3] was 30%. Also, in the series on ddY strain male mice, the “MLD (Minimum Lethal Dose) i.p.” value is recorded as > 100 mg/kg and the “MLD (Minimum Lethal Dose) p.o.” value is listed as > 300 mg/kg.
Regarding `O=c1c2[nH]c(-c3ccccc3)nc2c2cccnc2n1-c1ccccc1` [Compound 19, 2,5-Diphenyl-3H-imidazo[4,5-c][1,8]naphthyridin-4(5H)-one], the inhibition in vivo at 100 mg/kg in series [1] was found to be 1.7%. In addition, the IC50 in series [2] was > 10 µM. Also, in series [3], the responders at 100 mg/kg was found to be 60%.
In the same order, the values of `O=c1c2[nH]c(S)nc2c2cccnc2n1-c1ccccc1` [Compound 20, 2-Mercapto-5-phenyl-3H-imidazo[4,5-c][1,8]naphthyridin-4(5H)-one] are 6.8%, > 10 µM and 30%.
With `O=c1c2[nH]c(O)nc2c2cccnc2n1-c1ccccc1` [Compound 21, 2-Hydroxy-5-phenyl-3H-imidazo[4,5-c][1,8]naphthyridin-4(5H)-one], the inhibition in vivo at 100 mg/kg in series [1] is 2.3%. Also, in series [2], the IC50 turned out to be 2 µM. For the same compound, in series [3], the responders at 100 mg/kg was 30%. In the series with ddY strain male mice, the “MLD (Minimum Lethal Dose) i.p.” value was > 100 mg/kg and the “MLD (Minimum Lethal Dose) p.o.” value was > 300 mg/kg.
Regarding `Cc1ccc(-n2c(=O)c3[nH]cnc3c3cccnc32)cc1` [Compound 24, 5-(4-Methyl)phenyl-3H-imidazo[4,5-c][1,8]naphthyridin-4(5H)-one], the inhibition in vivo at 50 mg/kg in series [1] was found to be 0.3%. The IC50 in series [2] was > 10 µM. Besides, the responders at 100 mg/kg in series [3] came out at 40%.
As for `Cc1cccc(-n2c(=O)c3[nH]cnc3c3cccnc32)c1` [Compound 25, 5-(3-Methyl)phenyl-3H-imidazo[4,5-c][1,8]naphthyridin-4(5H)-one], the inhibition in vivo at 100 mg/kg in series [1] was found to be 13.8%. Also, in series [2], the IC50 was > 10 µM. Moreover, the responders at 100 mg/kg in series [3] was 60%.
On the same counts, the results for `O=c1c2[nH]cnc2c2cccnc2n1-c1cccc(Cl)c1` [Compound 26, 5-(3-Chloro)phenyl-3H-imidazo[4,5-c][1,8]naphthyridin-4(5H)-one] are 15.2%, > 10 µM and 90%.
On the same counts, the results for `CCCCn1c(=O)c2[nH]cnc2c2cccnc21` [Compound 27, 5-n-Butyl-3H-imidazo[4,5-c][1,8]naphthyridin-4(5H)-one] are 8.6%, > 10 µM and 60%.
In the case of `CCCCCCn1cnc2c3cccnc3n(-c3ccccc3)c(=O)c21` [Compound 30, 3-Hexyl-5-phenyl-3H-imidazo[4,5-c][1,8]naphthyridin-4(5H)-one], the inhibition in vivo at 100 mg/kg in series [1] was 48.5%. In series [4], the inhibition in vivo at 25 mg/kg came out at 33.5%. Also, in series [3], the responders at 100 mg/kg worked out at 90%. Further, in the series on ddY strain male mice, the “MLD (Minimum Lethal Dose) i.p.” value was > 100 mg/kg and the “MLD (Minimum Lethal Dose) p.o.” value is > 300 mg/kg.
For the compound `O=c1c2c(ncn2Cc2ccc(Cl)cc2)c2cccnc2n1-c1ccccc1` [Compound 40, 3-(4-Chlorophenyl)methyl-5-phenyl-3H-imidazo[4,5-c][1,8]naphthyridin-4(5H)-one], in series [1], the inhibition in vivo at 100 mg/kg was 21.3%. For the same compound, the inhibition in vivo at 25 mg/kg in series [4] came out at 42.8%. Also, the responders at 100 mg/kg in series [3] turned out to be 40%.
In the case of `O=c1c2c(ncn2Cc2ccc([N+](=O)[O-])cc2)c2cccnc2n1-c1ccccc1` [Compound 42, 3-(4-Nitrophenyl)methyl-5-phenyl-3H-imidazo[4,5-c][1,8]naphthyridin-4(5H)-one], in series [1], the inhibition in vivo at 100 mg/kg was determined as 35.9%. The inhibition in vivo at 25 mg/kg in series [4] was 45.6%. The responders at 50 mg/kg in series [3] (50 mg/kg p.o., n = 10, control group survival 0%) amounted to 100%.
As to `Cc1ccc(Cn2cnc3c4cccnc4n(-c4ccccc4)c(=O)c32)cc1` [Compound 43, 3-(4-Methylphenyl)methyl-5-phenyl-3H-imidazo[4,5-c][1,8]naphthyridin-4(5H)-one], the inhibition in vivo at 100 mg/kg in series [1] amounted to 39.2%. The inhibition in vivo at 25 mg/kg in series [4] is 56.2%. Further, the responders at 100 mg/kg in series [3] came out at 70%. Moreover, in the series with ddY strain male mice, the “MLD (Minimum Lethal Dose) i.p.” value was > 100 mg/kg and the “MLD (Minimum Lethal Dose) p.o.” value was > 300 mg/kg.
For `COc1ccc(Cn2cnc3c4cccnc4n(-c4ccccc4)c(=O)c32)cc1` [Compound 45, 3-(4-Methoxyphenyl)methyl-5-phenyl-3H-imidazo[4,5-c][1,8]naphthyridin-4(5H)-one], the inhibition in vivo at 100 mg/kg in series [1] came to 37.8%. Also, in series [4], the inhibition in vivo at 25 mg/kg amounted to 66.9%. Besides, the responders at 100 mg/kg in series [3] amounted to 40%.
`COc1cccc(Cn2cnc3c4cccnc4n(-c4ccccc4)c(=O)c32)c1` [Compound 46, 3-(3-Methoxyphenyl)methyl-5-phenyl-3H-imidazo[4,5-c][1,8]naphthyridin-4(5H)-one]: in series [4], the inhibition in vivo at 25 mg/kg turned out to be 43.5%. In series [3], the responders at 100 mg/kg was 10%.
Consider `O=c1c2c(ncn2Cc2cccc([N+](=O)[O-])c2)c2cccnc2n1-c1ccccc1` [Compound 47, 3-(3-Nitrophenyl)methyl-5-phenyl-3H-imidazo[4,5-c][1,8]naphthyridin-4(5H)-one], for which the inhibition in vivo at 100 mg/kg in series [1] is 33.1%. Also, the inhibition in vivo at 25 mg/kg in series [4] is 35.7%. Further, the responders at 100 mg/kg in series [3] was 0%. Further, in the series with ddY strain male mice, the “MLD (Minimum Lethal Dose) i.p.” value is listed as > 100 mg/kg and the “MLD (Minimum Lethal Dose) p.o.” value is listed as > 300 mg/kg.
On to `Cc1cccc(-n2c(=O)c3c(ncn3Cc3ccccc3)c3cccnc32)c1` [Compound 58, 5-(3-Methylphenyl)-3-benzyl-3H-imidazo[4,5-c][1,8]naphthyridin-4(5H)-one], for which the inhibition in vivo at 50 mg/kg in series [1] came to 36.3%. Moreover, the inhibition in vivo at 25 mg/kg in series [4] was 47%. Besides, the responders at 100 mg/kg in series [3] amounted to 100%. In addition, in the series on ddY strain male mice, the “MLD (Minimum Lethal Dose) i.p.” value was > 100 mg/kg and the “MLD (Minimum Lethal Dose) p.o.” value was > 300 mg/kg.
